The test system of experiment [1] is recombinant human PCNA (hPCNA). Put plainly: ELISA binding of biotinylated NKp44-derived peptides to plate-bound recombinant PCNA. Particulars: biotinylated peptide, 0–7.24 µM (Figure 1A), streptavidin-HRP, TMB, O.D. 650 nm. As for the experimental part: The pET-28 or pMAL-c2x vectors were used to produce soluble human PCNA (hPCNA) in Rosetta™ 2 (DE3) cells. Plasmids containing the mRNA sequence of PCNA or TL1A, APO-E3, HNF4 were transformed into Rosetta™ 2 cells via heat shock and grown on LB agar plates with kanamycin and chloramphenicol. A fresh colony of transformed bacteria was grown overnight in a 5 ml of LB with kanamycin and chloramphenicol an incubator shaker set to 37°C and at 250 rpm. The next day, bacteria cells were diluted 1:100 into a 500 ml of LB with kanamycin and chloramphenicol (to discard dead cells) and grown to an optical density (O.D.) of 0.6–0.8 (λ = 650 nm). Isopropyl β-D-1-thiogalactopyranoside (0.5 mM) was added for the induction of the PCNA production, and cells were further incubated for 4 h at 26°C (hPCNA). Cells were then centrifuged and the pellet was resuspended with solution A (20 mM Tris–HCl pH 8.0, 0.5 M NaCl, 20 mM imidazole), sonicated six times (20 s with 40 s intervals) and sieved through […] (Sartorius Stedim Biotech) filter before loaded on a His-tag or Amylose resin beads. Purification of His-tagged proteins was done using a Gravity-flow Column with “HisPur™ Ni-NTA Resin” Bead kit (Thermo-Scientific) (binding capacity ≤ 60 mg of a 28 kDa 6xHis-tagged protein from a bacterial source per milliliter of settled resin) according to Kits Protocol. Purification of MBP-tagged proteins was done using the Amylose resin beads (Catalog # E8035S).
To determine the interaction between NKp44-derived peptides and PCNA, ELISA plates were coated overnight at 4°C with 2 µg/ml of the recombinant PCNA or TLA1 ([49]), APO-E3 ([50]), HNF4 ([4]), rhFc, rhNKp44-hFc ([12]), rhNKp46-hFc ([51]), and PBS 1× (negative controls). Blocking buffer (PBS + 2.5% skim milk) was applied for 2 h at room temperature, after that the plates were incubated with 0–8 µM of biotinylated NKp44-derived peptides or PBS 1× (background control) for 2 h at room temperature. NKp44-derived peptides binding to PCNA was detected using horseradish peroxidase (HRP)-conjugated to streptavidin (1 h at 1:500 dilution). Following washing, TMB (DAKO, S1599) was added. O.D. was read at 650 nm (Thermo Electron Corporation Multiskan Spectrum). Between each step, wells were washed three times with PBS containing 0.05% Tween 20 (PBST).
(In general: An ELISA detects its analyte on a solid surface through an enzyme-linked reagent.)

Experiment [2] concerns NK92-44-1 cells (NK92 overexpressing NKp44-1 splice variant). Put plainly: IFNγ secretion assay of NK92-44-1 cells co-incubated with PANC-1 cells. Type of experiment: cell-based, human. The conditions noted are these: NK92-44-1 with HLA-I positive PANC-1, E:T 1:2; peptide 10 or 20 µg/well. On the procedure:
IFNγ secretion assay and ELISA assay were done as previously described ([11], [12]). NKp44-pep8, pep9, and pep10 (10 or 20 µg) were added to the IFNγ secretion assay.
Figure 1 Recognition of recombinant human PCNA (hPCNA) by NKp44-derived pep8 (NKp44-pep8). (A) ELISA assay representing the binding curve of biotinylated NKp44-derived pep5, pep8, and pep10 at a peptide concentration range of 0–7.24 µM to plate bond hPCNA. (B) IFNγ secretion assay of NK92-44-1 cells co-incubate with the HLA positive cell line PANC-1 (E:T ration of 1:2) in the presence of NKp44-pep8 (10 or 20 μg/well), NKp44-derived pep5 was used as negative control. Note that when we apply to NK92-44-1 pep8 (without target cells), activation of IFNγ secretion is minimal and less/similar to the observed activation when applying the pep5 negative control. (C) ELISA assay of blocking NKp44–proliferating cell nuclear antigen (PCNA) interaction via NKp44-pep8. NKp44-derived pep5 was used as a negative control. No peptide represents the maximal binding capacity of NKp44 to hPCNA. (D) ELISA assay showing the specific recognition of NKp44-pep8 (5 µg/ml) to hPCNA relative to TL1A, APO-E3, HNF4, NKp44-Ig, hNKp46-Ig, hFc. (E) ProteOn array showing the binding of hPCNA at protein concentration range of 0–250 nM to bond NKp44-pep8. 0 nM (X base-line), 15.6 nM (yellow), 31.2 (purple), 62.5 nM (green), 125 nM (blue), and 250 nM (red).

The subject of experiment [3] is NKp44–PCNA interaction. Put plainly: ELISA blocking of NKp44-hFc interaction with PCNA. Particulars: peptide 0–10 µM, NKp44-hFc 80 nM, anti-human IgG-HRP, O.D. 650 nm, negative control pep5. Type of experiment: binding. On the procedure:
To determine the ability of NKp44-pep8 to block NKp44-hFc interaction with PCNA, ELISA plates were coated overnight at 4°C with 2 µg/ml of the recombinant PCNA, blocking buffer (PBS + 2.5% skim milk) was applied for 2 h at room temperature, after which the plates were incubated with 0–10 µM of biotinylated NKp44-derived peptides or PBS 1× (100 μl/well, background control) for 2 h at room temperature and then NKp44-hFc (80 nM, 20 µl/well) was added without washing for 1 h at room temperature. NKp44-hFc binding to PCNA was detected using HRP conjugated to antihuman IgG (1 h at 1:400 dilution 100 μl/well). Following washing, TMB (100 μl/well DAKO, S1599) was added. O.D. was read at 650 nm (Thermo Electron Corporation Multiskan Spectrum). Between each step, wells were washed three times with 200 μl/well PBS 1× containing 0.05% Tween 20 (PBST).

This note sets out measurements from publication PMC5974751, “NKp44-Derived Peptide Binds Proliferating Cell Nuclear Antigen and Mediates Tumor Cell Death” (Frontiers in Immunology, 2018).

In the case of “VTSSKPRTVAWTSRFTIWAA [pep10, NKp44-derived 20mer peptide, amino acids 67–86]”, the “binding to recombinant hPCNA” value in experiment [1] was “also bound to PCNA but to a lesser extent as compared with pep8”. Also, the “IFNγ secretion / NK92 cell function in presence of peptide” value in experiment [2] is “but not pep10 could block NKp44–PCNA interaction and upregulate NK92 cell function”. Moreover, the “inhibition of rhNKp44 binding to PCNA” value in experiment [3] is recorded as “but not pep10 could block NKp44–PCNA interaction”.
